We go through 32 compounds from ChEMBL document CHEMBL3769344 (J Med Chem, 2016).

For one experiment, the system named is Influenza A virus. Nature of the experiment: Antiviral activity against Influenza A virus A/WSN/33(H1N1) expressing M2 proton channel S31N mutant infected in MDCK cells assessed as reduction in plaque formation preincubated for 30 mins followed by infection measured on day 2 post infection by naphthalene black dye-based assay. It counts as functional, organism-based, A/WSN/1933(H1N1).
For orientation: EC50 means the midpoint of the concentration-response curve. On to `OC1C2CC3CC1CC(NCc1cc(-c4cccs4)on1)(C3)C2` (configuration not stated), for which the EC50 was determined as 727 nM.
In the case of `Oc1ccc(NC23CC4CC(CC(C4)C2)C3)c(O)c1`, the EC50 came out at 3200 nM.
Still for that read-out and setting: as for `c1csc(-c2cc(NC34CC5CC(CC(C5)C3)C4)no2)c1`, the figure is 353 nM; as for `COc1ccsc1-c1cc(CNC23CC4CC(CC(O)(C4)C2)C3)no1`, 404 nM; as for `OC12CC3CC(C1)CC(NCc1cc(-c4cccs4)on1)(C3)C2`, 510 nM.
Still for that read-out and setting: then `OC12CC3CC(O)(C1)CC(NCc1cc(-c4cccs4)on1)(C3)C2`, with 2500 nM; and `NC12CC3CC(CC(C3)C1)C2` [AMANTADINE], with 22500 nM.

In the next experiment the test system is Influenza A virus. Nature of the experiment: Antiviral activity against Influenza A virus A/WSN/33(H1N1) expressing M2 proton channel S31N mutant infected in MDCK cells assessed as plaque formation at 1 uM preincubated for 30 mins followed by infection measured on day 2 post infection by naphthalene black dye-based assay relative to control. It counts as functional, A/WSN/1933(H1N1).
As to `OC1C2CC3CC1CC(NCc1cc(-c4cccs4)on1)(C3)C2` (configuration not stated), the Activity was 10%.
On the same count and under the same terms, as for `c1c(CNC23CC4CC(CC(C4)C2)C3)noc1C1CC1`, the figure is 42%; as for `Clc1ccccc1-c1cc(CNC23CC4CC(CC(C4)C2)C3)no1`, 84%; as for `CCCc1cc(CNC23CC4CC(CC(C4)C2)C3)no1`, 73%.
As for `O=C1C2CC3CC1CC(NCc1cc(-c4cccs4)on1)(C3)C2`, the Activity was 31%.
Same read-out and setting: then `c1csc(-c2nc(CNC34CC5CC(CC(C5)C3)C4)no2)c1`, with 66%; and `Clc1ccccc1-c1nc(CNC23CC4CC(CC(C4)C2)C3)no1`, with 88%; and `c1csc(-c2cc(CNC34CC5COC(CC(C5)C3)C4)no2)c1` (configuration not stated), with 58%.
For the compound `c1csc(-c2cc(NC34CC5CC(CC(C5)C3)C4)no2)c1`, the Activity was determined as 32%.
For `COc1ccsc1-c1cc(CNC23CC4CC(CC(O)(C4)C2)C3)no1`, the Activity is 33%.
Still for that read-out and setting: as for `c1ccc(-c2cc(CNC34CC5CC(CC(C5)C3)C4)no2)cc1`, the figure is 26%; as for `c1c(CNC23CC4CC(CC(C4)C2)C3)noc1C1CCCCC1`, 57%.
The same measure, in the same setting: as for `c1c(CNC23CC4CC(CC(C4)C2)C3)noc1C1CCC1`, the figure is 42%.
For the compound `Fc1cccc(F)c1-c1cc(CNC23CC4CC(CC(C4)C2)C3)no1`, the Activity is on record as 56%.
In the case of `COc1ccc(-c2nc(CNC34CC5CC(CC(C5)C3)C4)no2)c(OC)c1`, the Activity turned out to be 76%.
Take `c1cc(-c2nc(CNC34CC5CC(CC(C5)C3)C4)no2)cs1`: the Activity was 74%.
The same measure, in the same setting: as for `c1cc(-c2cc(CNC34CC5CC(CC(C5)C3)C4)no2)cs1`, the figure is 47%.
On the same count and under the same terms, as for `c1csc(-c2cc(CNC34CC5CC(C3)C3(CO3)C(C5)C4)no2)c1` (configuration not stated), the figure is 72%; as for `c1csc(-c2nnc(CNC34CC5CC(CC(C5)C3)C4)s2)c1`, 39%; as for `COc1cccc(-c2cc(CNC34CC5CC(CC(C5)C3)C4)no2)c1`, 39%.
On the same count and under the same terms, as for `CC1(O)C2CC3CC1CC(NCc1cc(-c4cccs4)on1)(C3)C2` (configuration not stated), the figure is 27%; as for `COc1ccc(-c2cc(CNC34CC5CC(CC(C5)C3)C4)no2)cc1`, 59%; as for `c1coc(-c2cc(CNC34CC5CC(CC(C5)C3)C4)no2)c1`, 47%.
Regarding `CC(C)c1cc(CNC23CC4CC(CC(C4)C2)C3)no1`, the Activity is recorded as 66%.
As for `COc1ccccc1-c1nc(CNC23CC4CC(CC(C4)C2)C3)no1`, the Activity was 66%.
Still for that read-out and setting: as for `C(NC12CC3CC(CC(C3)C1)C2)c1noc(C2CC2)n1`, the figure is 82%; as for `OC12CC3CC(C1)CC(NCc1cc(-c4cccs4)on1)(C3)C2`, 40%.
`OC12CC3CC(O)(C1)CC(NCc1cc(-c4cccs4)on1)(C3)C2`: the Activity is 69%.
Same read-out and setting: as for `COc1ccsc1-c1cc(CNC23CC4CC(CC(C4)C2)C3)no1`, the figure is 39%; as for `COc1ccc(-c2nc(CNC34CC5CC(CC(C5)C3)C4)no2)cc1`, 92%.
